US10745352B2, “Dual function molecules for histone deacetylase inhibition and ataxia telangiectasia mutated activation and methods of use thereof” (Shuttle Pharmaceuticals, Inc., priority 2015, dated 2020)

Columns and labels:
pan-HDACs = experiment: Pan-HDAC assay (Fluor-de-Lys fluorometric kit, HeLa Nuclear Extract); format: biochemical; settings: values are average EC50, read-out: EC50 against pan-HDACs
Experimental: Certain compounds of the invention were tested in a pan-HDAC assay to determine the ability of such compounds to inhibit HDAC protein. Specifically, the compounds tested included: N-(6-(hydroxyamino)-6-oxohexyl)-3-methyl-1H-indole-2-carboxamide (SP-1-161) (FIG. 8A); N^1-hydroxy-N^6-(2-(2-methyl-1H-indol-3-yl)ethyl)octanediamide (SP-1-163) (FIG. 8A); (S)—N-(6-(hydroxyamino)-6-oxohexyl)-1-tosylindoline-2-carboxamide (SP-1-169) (FIG. 8B); and (S)-1-((5-(dimethylamino)naphthalene-1-yl)sulfonyl)-N-(6-(hydroxyamino)-6-oxoheyl)indoline-carboxamide (SP-1-171) (FIG. 8B).
The Pan HDAC assay was performed as follows:
Materials: Enzo Fluor-de-Lys HDAC fluorometric activity assay kit; 360 nm excitation 460 nm emission Plate Reader; Disposable pipettes; Pipet-aid; Pipette tips; Micro-pipetter; DMSO; Sterile micro-tubes and conical tubes; and Micro-centrifuge.
Test compounds and control preparation: All test compounds' stock solutions were made in 100% DMSO. Test compound dilutions were made in HDAC Assay buffer with a final concentration of DMSO less than or equal to 1%. Vehicle control was HDAC Assay buffer with 1% DMSO.
The reagents for the assay were prepared as follows:
1. All kit components were defrosted and these, and all dilutions described below, were kept on ice until use. All undiluted kit components are stable for several hours on ice.
2. A sufficient amount of HeLa Nuclear Extract (BML-KI140) or other HDAC source diluted in Assay Buffer (BML-KI143) was prepared to provide for the assays that were performed (# of wells×15 μl). A 30-fold dilution of the HeLa Extract means that 15 μl contains 0.5 μl of the undiluted Extract, an appropriate amount to use per well.
3. Dilution(s) of Trichostatin A and/or Test Inhibitors were prepared in Assay Buffer (BML-KI143). Since 10 μl were used per well, and since the final volume of the HDAC reaction was 50 μl, these inhibitor dilutions were 5× their final concentration.
4. Dilution(s) of the Fluor de Lys® Substrate (BML-KI104; 50 mM) were prepared in Assay Buffer (BML-KI143) that were 2× the desired final concentration(s). For inhibitor screening, substrate concentrations at or below the Km are recommended. Twenty-five μL were used per well. Initial dilutions of 25-fold or greater in Assay Buffer (2.0 mM or less) yielded stable solutions (see NOTE on freezing and thawing below). Rapid mixing and dilution into room temperature buffer helped to prevent precipitation at high substrate concentration. NOTE: Freezing/thawing of Fluor de Lys® Substrate solutions in Assay Buffer may cause precipitation of the Substrate. Dilute only amount necessary for one day's experiment.
5. Shortly before use (<30 min.), sufficient Fluor de Lys® Developer was prepared for the assays to be performed (50 μl per well). […]

ATM = ATM activation: phospho-ATM (S1981) ELISA on the nuclear fraction of MCF7 cells; format: cell-based, Human; settings: 1 μM, time course of 6 hours
Experimental: Several assays were utilized to determine the ability of the compounds of the invention to activate ATM over a period of time. […] The fold change in phospho-ATM was measured over a period of time. Accordingly, the increase in phospho-ATM indicates activation of ATM by the compounds of the invention.
In certain examples, the activity of the compounds of the invention was compared to additional modulators of ATM, such as […] (a specific ATM inhibitor); dimethylsulfoxide (DMSO) (a solvent); 3,3′-diindolylmethane (DIM) (an ATM activator); and irradiation (irradiation may result in the generation of phospho-ATM due to DNA damage). DIM was not used as a comparative compound in Example 5.
Materials: MCF7 Cells; Complete RPMI media: RPMI, 10% Fetal Bovine Serum (FBS), 5% L-glutamine, 5% Pen/Strep; R&D Systems Human P-ATM (S1981) DuoSet IC ELISA Assay Kit; Plate sealers; Normal mouse serum (heat inactivated 56 C for 30 min); 96-well ELISA microtiter plate; 450 nm Plate Reader; 60 mm dishes; Disposable pipettes; Pipet-aid; Pipette tips; Micro-pipetter; Cell scraper; Distilled water; Pierce NE-PER Nuclear and Cytoplasmic Extraction Reagent; Pierce Protease and Phosphotase Inhibitor Mini Tablets; KU-55933; DIM (not used in Example 5); Dimethyl sulfoxide (DMSO); Phosphate buffered saline (PBS); and Sterile micro-tubes and conical tubes; Hemocytometer; Microscope; Micro-centrifuge.
MCF7 Cells were grown in Complete RPMI media and 10^6 cells were seeded into 60 mm dishes. Dishes were then divided into duplicate treatments the following day. Control samples were treated with 3 ml RPMI media for 1 hr. Vehicle samples were treated with 3 ml RPMI media plus 0.1% DMSO for 1 hr. Negative control samples were treated with 10 μM KU-55933 in 3 ml RPMI media plus 0.1% DMSO for 1 Hr. Positive control samples were treated with 0.5 μM DIM in 3 ml RPMI media plus 0.1% DMSO for 30 min. Test Samples were treated with 1 μM of the test compounds (e.g. N-(6-(hydroxyamino)-6-oxohexyl)-1H-indole-2-carboxamide in Example 5) in 3 ml RPMI media plus 0.1% DMSO for 30 min; 1 hr; 2 hrs; 4 hrs; and 6 hrs. At their designated time, samples were harvested on ice using a cell scraper and two washes of 1 ml PBS and kept as a cell pellet on dry ice until all were collected. After all samples were collected they were thawed on ice and separated into cytosolic and nuclear fractions using the Pierce NE-PER Nuclear and Cytoplasmic Extraction Reagent kit with added Pierce protease and phosphotase inhibitor tablet.
After recovery of the separate fractions, the process further included washing cells by suspending the cell pellet with PBS. 1-10×10^6 cells were transferred to a 1.5 mL microcentrifuge tube and a pellet was formed by centrifugation at 500×g for 2-3 minutes. […]

EC50 (pan-HDACs)	Structure (SMILES)	ATM activation (level of ATM phosphorylation, phospho-ATM) (ATM)	ATM activation (level of ATM phosphorylation, phospho-ATM) (ATM; listed as 2,3-dimethylindole)
265 nM	Cc1ccc(S(=O)(=O)N2c3ccccc3C[C@H]2C(=O)NCCCCCC(=O)NO)cc1 [SP-1-169, (S)—N-(6-(hydroxyamino)-6-oxohexyl)-1-tosylindoline-2-carboxamide]		
25.3 nM	CN(C)c1cccc2c(S(=O)(=O)N3c4ccccc4C[C@H]3C(=O)NCCCCCC(=O)NO)cccc12 [SP-1-171, (S)-1-((5-(dimethylamino)naphthalene-1-yl)sulfonyl)-N-(6-(hydroxyamino)-6-oxoheyl)indoline-carboxamide]		
112 nM	Cc1[nH]c2ccccc2c1CCNC(=O)CCCCCCC(=O)NO [SP-1-163, N^1-hydroxy-N^6-(2-(2-methyl-1H-indol-3-yl)ethyl)octanediamide]	exemplary ATM activation activity	
	Cc1[nH]c2ccccc2c1C [2,3-dimethyl indole, reference compound]	significant increase in ATM phosphorylation	significant increase in ATM activation
